Measured values: patent US8658648B2, “Modified chloroquines with single ring moiety or fused ring moiety” (DesignMedix, Inc., priority 2008, dated 2014)
Read-outs that look alike come from different tables or passages of the source.

Experiments:
[1] = system: D6 (CQ^S) P. falciparum strain; test: In vitro fluorescence (Sybr Green I) assay for IC50 against D6 strain; format: cell-based; details: Plasmodium falciparum, read-out: IC50-D6
Description: (§1) This method employs fluorescent detection of the level of parasitemia in cultured red blood cells and can be automated for high-throughput screening of antimalarial RCQs. This exemplary method allows the inhibitory agent (such as a MCQ) to be in contact with the parasite for an entire developmental cycle without purine starvation, which is in contrast to the traditional ^3H-hypoxanthine method (Desjardins et al. 1979. Antimicrob. Agents Chemother. 16(6):710-718, which is incorporated herein by reference in its entirety). Briefly, to perform the Smilkstein et al. method, an initial parasitemia of approximately 0.2% is attained by adding uninfected red blood cells (RBCs) to a stock culture of Plasmodium-infected RBCs. […] After a period of incubation (such as about 72 hours), a sufficient amount (e.g., 100 μL) of a fluorescent DNA binding dye-detergent mixture (e.g., Sybr Green I dye-detergent mixture) to lyse cells and bind to DNA is added to the reactions. Because uninfected RBCs have no DNA, only parasite DNA (in infected RBCs) is available for binding to the fluorescent dye (e.g., Sybr Green I). Samples are then incubated in the dark for a period of time (e.g., one hour), followed by measurement of levels of fluorescence. For Sybr Green 1, excitation and emission wavelength are 485 and 530 nm, respectively. Fluorescence readings, which represent the amount of parasite DNA in the sample, can be plotted against the Log [drug] and fit to a curve by nonlinear regression to obtain the IC50 value for the tested compound.
(§2) An in vitro fluorescence assay for determining IC50 of antimalarial drugs was performed as previously described by Smilkstein et al. (2004. Antimicrob. Agents Chemother. 48(5):1803-1806). This procedure can be automated for high-throughput screening of the antimalarial activities of RCQs described herein. This method also allows the tested agent (e.g., a MCQ) to be in contact with the parasite for an entire developmental cycle without purine starvation (which occurs with the commonly used ^3H-hypoxanthine method; see, e.g., Desjardins et al. 1979. Antimicrob. Agents Chemother. 16, (6):710-7188).
(§3) Briefly, an initial parasitemia of approximately 0.2% was attained by addition of uninfected red blood cells to a stock culture of cells infected with Dd2 (CQ^R), 7G8 (CQ^R), or D6 (CQ^S) P. falciparum strains. A 10 mM solution of a test compound (in DMSO) was prepared. The test compound (at a final concentration from 10^−11 to 10^−4 M) and infected red blood cells (at a final concentration of 2% (v/v)) were mixed in 100 μL samples in individual wells of a 96-well plate. Each sample was prepared in triplicate. A triplicate set of reactions containing CQ (instead of the test compound) was included as a control. After a 72 hour incubation period, Sybr Green I dye-detergent mixture (100 μL) was added to each reaction. The samples were further incubated for an hour in the dark, and then placed in a 96-well fluorescence plate reader (Gemini-EM, […]) and analyzed with excitation and emission wavelength bands at 485 and 530 nm, respectively. Fluorescence readings were plotted against the Log [drug], and curve fitting performed by nonlinear regression to find the IC50 value.

[2] = system: Dd2 (CQ^R) P. falciparum strain; test: In vitro fluorescence (Sybr Green I) assay for IC50 against Dd2 strain; format: cell-based; details: Plasmodium falciparum, read-out: IC50-Dd2
Description: as §1, §2, §3

[3] = system: 7G8 (CQ^R) P. falciparum strain; test: In vitro fluorescence (Sybr Green I) assay for IC50 against 7G8 strain; format: cell-based; details: Plasmodium falciparum, read-out: IC50-7G8
Description: as §1, §2, §3

[4] = system: mitogen-induced marine spleen lymphocytes; format: cell-based; details: LC50; mouse spleen lymphocytes, 72 hours incubation, then resazurin 24 hours
Method: Mouse spleen lymphocytes were isolated from C57B1/6J mice by teasing tissues on a metallic sieve screen. […] Two hundred (200) μl isolated cells were then seeded in separate wells of a 96-well flat-bottom tissue culture plate at a density of 2×10^5 cells per well. […] After 72 hours incubation in a humidified atmosphere at 37° C. and 5% CO2, a solution of resazurin PBS was added to a final concentration 10 μM, and the plates were returned to the incubator for another 24 hours. Resazurin is a substrate which changes color in response to metabolic activity (such as that found in living cells). […] LC50 values were determined from plots of florescence versus drug concentration using non-linear regression by Prism software.

[5] = system: P. falciparum strain D6; details: cited from earlier work; note: key: S = sensitive; R = resistant; S/R = intermediate level of resistance
[6] = system: P. falciparum strain FCR3; details: cited from earlier work; note: key: S = sensitive; R = resistant; S/R = intermediate level of resistance
[7] = system: P. falciparum strain W2; details: cited from earlier work; note: key: S = sensitive; R = resistant; S/R = intermediate level of resistance
[8] = system: P. falciparum strain Dd2; details: cited from earlier work; note: key: S = sensitive; R = resistant; S/R = intermediate level of resistance
[9] = system: P. falciparum strain TM91C235; details: cited from earlier work; note: key: S = sensitive; R = resistant; S/R = intermediate level of resistance
[10] = Erythrocyte, D6 (CQ^S) strain in infected red blood cells, 72 hour incubation
[11] = Erythrocyte, Dd2 (CQ^R) strain in infected red blood cells, 72 hour incubation
[12] = Erythrocyte, 7G8 (CQ^R) strain in infected red blood cells, 72 hour incubation

Row | SMILES | IC50 ([1]; D6, Erythrocyte, 72 h) | IC50 ([2]; DD2, Erythrocyte, 72 h) | Cytotoxicity [4] | Drug susceptibility of P. falciparum strain D6 [5] | Drug susceptibility of P. falciparum strain FCR3 [6] | Drug susceptibility of P. falciparum strain W2 [7] | Drug susceptibility of P. falciparum strain Dd2 [8] | further results
1 | Clc1ccc2c(NCCCN3CCN(c4ccncc4)CC3)ccnc2c1 [7-chloro-N-(3-(4-(pyridin-4-yl)piperazin-1-yl)propyl)quinolin-4-amine] | – | – | – | – | – | – | – | IC50 [1, 10]: 2.07 nM; IC50 [2, 11]: 2 nM; IC50 [3, 12]: 6.8 nM
2 | Clc1ccc2c(NCCCN3CCN(c4ncccn4)CC3)ccnc2c1 [7-chloro-N-(3-(4-(pyrimidin-2-yl)piperazin-1-yl)propyl)quinolin-4-amine] | – | – | – | – | – | – | – | IC50 [1, 10]: 1.3 nM; IC50 [2, 11]: 1 nM; IC50 [3, 12]: 3.3 nM
3 | Cc1ccc(N2CCN(CCCNc3ccnc4cc(Cl)ccc34)CC2)cc1 [7-chloro-N-(3-(4-p-tolylpiperazin-1-yl)propyl)quinolin-4-amine] | – | – | – | – | – | – | – | IC50 [1, 10]: 0.11 nM; IC50 [2, 11]: 0.86 nM; IC50 [3, 12]: 0.3 nM
4 | Clc1ccc2c(NCCCN3CCN(c4ccccc4)CC3)ccnc2c1 [7-chloro-N-(3-(4-phenylpiperazin-1-yl)propyl)quinolin-4-amine] | < 2.5 nM | < 2.5 nM | 6400 nM | – | – | – | – | –
5 | CC1(C)N=C(N)N=C(N)N1c1ccc(Cl)cc1 [Cycloguanil] | – | – | – | S | S | R | S | –
6 | OC(c1cc(C(F)(F)F)nc2c(C(F)(F)F)cccc12)C1CCCCN1 (centres unmarked) [Mefloquine] | – | – | – | S/R | S | S | R | Drug susceptibility of P. falciparum strain TM91C235 [9]: R
7 | Nc1ccc(N2CCN(CCCNc3ccnc4cc(Cl)ccc34)CC2)cc1 [N-(3-(4-(4-aminophenyl)piperazin-1-yl)propyl)-7-chloroquinolin-4-amine] | 1.8 nM | 3.16 nM | – | – | – | – | – | IC50 ([3]; 7G8, Erythrocyte, 72 h): 3.2 nM
8 | Clc1ccc2c(NCCCN3CCN(c4ccccc4-c4ccccc4)CC3)ccnc2c1 [N-(3-(4-(biphenyl-2-yl)piperazin-1-yl)propyl)-7-chloroquinolin-4-amine] | 1.2 nM | 2.6 nM | 1700 nM | – | – | – | – | –
9 | Clc1ccc2c(NCCCN3CCN(c4cccc(-c5ccccc5)c4)CC3)ccnc2c1 [N-(3-(4-(biphenyl-3-yl)piperazin-1-yl)propyl)-7-chloroquinolin-4-amine] | 0.94 nM | 1.8 nM | 2100 nM | – | – | – | – | –
10 | Clc1ccc2c(NCCCN3CCN(c4ccc(-c5ccccc5)cc4)CC3)ccnc2c1 [N-(3-(4-(biphenyl-4-yl)piperazin-1-yl)propyl)-7-chloroquinolin-4-amine] | 0.1 nM | 0.36 nM | 2200 nM | – | – | – | – | IC50 ([3]; 7G8, Erythrocyte, 72 h): 0.13 nM
11 | C=C[C@H]1C[N@@]2CC[C@H]1C[C@H]2[C@H](O)c1ccnc2ccc(OC)cc12 [Quinine] | – | – | – | S | S | R | R | Drug susceptibility of P. falciparum strain TM91C235 [9]: R
12 | COc1ncnc(NS(=O)(=O)c2ccc(N)cc2)c1OC [Sulfadoxine] | – | – | – | S | S | R | S | Drug susceptibility of P. falciparum strain TM91C235 [9]: R
